Measured values: ChEMBL document CHEMBL1123713, “Synthesis and calcium channel antagonist activity of dialkyl 4- (dihydropyridinyl)-1,4-dihydro-2,6-dimethyl-3,5-pyridinecarboxylates” (J Med Chem, 1987)

Experiments:
[1] = target: Muscarinic acetylcholine receptor (Homo sapiens) (UniProt P20309+P08173+P11229+P08172+P08912); conditions: Cavia porcellus
Description: Inhibition of muscarinic receptor mediated [Ca2+] dependent contraction of guinea pig ileal longitudinal smooth muscle.

[2] = species: Cavia porcellus; experiment: Negative logarithm antagonist concentration causing 50% inhibition of tonic CD response in the guinea pig ileal longitudinal smooth muscle preparation; format: functional, Muscle tissue
[3] = target: Voltage-gated L-type calcium channel (Homo sapiens, UniProt Q13936+Q13698+Q01668+O60840); experiment: Negative log antagonist concentration causing 50% displacement of [3H]nifedipine from guinea pig ileal smooth muscle membrane.; format: tissue-based, Cavia porcellus, Muscle tissue; conditions: target entry is the homologue from another species
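For ID50 in this document: blockade of Ca2+-dependent contraction driven by muscarinic receptors in longitudinal smooth muscle strips of guinea pig ileum.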

CO/C(O)=C1\C(C)=NC(C)=C(C(=O)OCC(C)C)C1C1=CCN(C(=O)Oc2ccccc2)C=C1 (stereo not given)
ID50 [1]: 81000 nM

CC1=NC(C)=C(C(=O)OCC(C)C)C(C2=CC=CN(C(=O)Oc3ccccc3)C2)/C1=C(\O)OCC(C)C (stereo not given)
ID50 [1]: 6460 nM

CO/C(O)=C1\C(C)=NC(C)=C(C(=O)OCC(C)C)C1C1=CCN(C(=O)OC(C)(C)C)C=C1 (stereo not given)
ID50 [1]: 1180 nM

CC1=NC(C)=C(C(=O)OC(C)C)C(C2=CC=CN(C(=O)Oc3ccccc3)C2)/C1=C(\O)OC(C)C (stereo not given)
ID50 [1]: 1670 nM
-Log ID50 [2]: 5.78

CC1=NC(C)=C(C(=O)OC(C)C)C(C2=CC=CN(C(=O)OC(C)(C)C)C2)/C1=C(\O)OC(C)C (stereo not given)
ID50 [1]: 114 nM

COC(=O)N1C=CC=C(C2C(C(=O)OCC(C)C)=C(C)N=C(C)/C2=C(/O)OC)C1 (stereo not given)
ID50 [1]: 31 nM

CO/C(O)=C1\C(C)=NC(C)=C(C(=O)OCC(C)C)C1C1=CC=CN(C(=O)Oc2ccccc2)C1 (stereo not given)
ID50 [1]: 45 nM

CCOC(=O)C1=C(C)N=C(C)/C(=C(/O)OCC)C1C1=CC=CN(C(=O)OC(C)(C)C)C1 (stereo not given)
ID50 [1]: 672 nM

CO/C(O)=C1\C(C)=NC(C)=C(C(=O)OC(C)C)C1C1=CC=CN(C(=O)Oc2ccccc2)C1 (stereo not given)
ID50 [1]: 900 nM

COC(=O)N1C=CC(C2C(C#N)=C(C)NC(C)=C2C#N)=CC1
ID50 [1]: 67500 nM

COC(=O)C1=C(C)N=C(C)/C(=C(/O)OC)C1C1=CC=CN(C(=O)Oc2ccccc2)C1 (stereo not given)
ID50 [1]: 3690 nM
-Log ID50 [2]: 5.43

COC(=O)C1=C(C)NC(C)=C(C(=O)OC)C1c1ccccc1[N+](=O)[O-] [NIFEDIPINE]
-Log KD50 [3]: 9.08

CC1=NC(C)=C(C(=O)OCC(C)C)C(C2=CCN(C(=O)OC(C)(C)C)C=C2)/C1=C(\O)OCC(C)C (stereo not given)
ID50 [1]: 2030 nM

CC1=NC(C)=C(C(=O)OCC(C)C)C(C2=CCN(C(=O)Oc3ccccc3)C=C2)/C1=C(\O)OCC(C)C (stereo not given)
ID50 [1]: 510 nM

COC(=O)N1C=CC=C(C2C(C#N)=C(C)N=C(C)/C2=C(/O)OC)C1 (stereo not given)
ID50 [1]: 51600 nM

COC(=O)N1C=CC(C2C(C(=O)OCC(C)C)=C(C)N=C(C)/C2=C(/O)OC)=CC1 (stereo not given)
ID50 [1]: 1760 nM

CCOC(=O)C1=C(C)N=C(C)/C(=C(/O)OCC)C1C1=CC=CN(C(=O)OC)C1 (stereo not given)
ID50 [1]: 180 nM

CCOC(=O)C1=C(C)N=C(C)/C(=C(/O)OCC)C1C1=CC=CN(C(=O)Oc2ccccc2)C1 (stereo not given)
ID50 [1]: 865 nM

COC(=O)N1C=CC=C(C2C(C(=O)OCC(C)C)=C(C)N=C(C)/C2=C(/O)OCC(C)C)C1 (stereo not given)
ID50 [1]: 771 nM

COC(=O)N1C=CC(C2C(C(=O)OC(C)C)=C(C)N=C(C)/C2=C(/O)OC(C)C)=CC1 (stereo not given)
ID50 [1]: 1010 nM

COC(=O)N1C=CC=C(C2C(C(=O)OC(C)C)=C(C)N=C(C)/C2=C(/O)OC)C1 (stereo not given)
ID50 [1]: 158 nM

CC1=NC(C)=C(C(=O)OCC(C)C)C(C2=CC=CN(C(=O)OC(C)(C)C)C2)/C1=C(\O)OCC(C)C (stereo not given)
ID50 [1]: 3420 nM

COC(=O)C1=C(C)N=C(C)/C(=C(/O)OC)C1C1=CC=CN(C(=O)OC)C1 (stereo not given)
ID50 [1]: 589 nM
-Log ID50 [2]: 6.23

COC(=O)N1C=CC=C(C2C(C#N)=C(C)NC(C)=C2C#N)C1
ID50 [1]: 33900 nM

CO/C(O)=C1\C(C)=NC(C)=C(C(=O)OC(C)C)C1C1=CC=CN(C(=O)OC(C)(C)C)C1 (stereo not given)
ID50 [1]: 237 nM

COC(=O)C1=C(C)N=C(C)/C(=C(/O)OC)C1C1=CCN(C(=O)OC)C=C1 (stereo not given)
ID50 [1]: 7470 nM

CO/C(O)=C1\C(C)=NC(C)=C(C(=O)OCC(C)C)C1C1=CC=CN(C(=O)OC(C)(C)C)C1 (stereo not given)
ID50 [1]: 128 nM

COC(=O)N1C=CC(C2C(C(=O)OCC(C)C)=C(C)N=C(C)/C2=C(/O)OCC(C)C)=CC1 (stereo not given)
ID50 [1]: 1720 nM

COC(=O)N1C=CC=C(C2C(C(=O)OC(C)C)=C(C)N=C(C)/C2=C(/O)OC(C)C)C1 (stereo not given)
ID50 [1]: 131 nM

COC(=O)C1=C(C)N=C(C)/C(=C(/O)OC)C1C1=CC=CN(C(=O)OC(C)(C)C)C1 (stereo not given)
ID50 [1]: 5770 nM
-Log ID50 [2]: 5.24

CCOC(=O)C1=C(C)N=C(C)/C(=C(/O)OCC)C1C1=CCN(C(=O)OC)C=C1 (stereo not given)
ID50 [1]: 2430 nM
